Data: patent US10745355B2, “Anti-cancer compounds” (THE UNIVERSITY OF SYDNEY, priority 2015, dated 2020)

What was measured:
[1] = biological target: LYN (Homo sapiens, UniProt P07948); assay: Kinase profiling (ProQinase 33PanQinase Activity Assay), LYN; format: biochemical; details: read-out: residual activity, LYN
Procedure: (§1) The kinase profiling of compound 1-08 at 10 and 50 μM was performed by ProQinase GmbH (Freiburg, Germany). A radiometric protein kinase assay (^33PanQinase® Activity Assay) and the non-radiometric ADP-Glo™ Assay (Promega, Madison, Wis., USA) were used for measuring kinase activity of 387 protein kinases and 13 lipid kinases, respectively. The results are shown in Table 3 (only the top 10 kinases are listed, and the selectivity score describes the portion of kinases inhibited more than 50% in relation to all tested kinases).

[2] = biological target: RON (Homo sapiens, UniProt Q04912); assay: Kinase profiling (ProQinase 33PanQinase Activity Assay), RON; format: biochemical; details: read-out: residual activity, RON
RON, sequence (Q04912 25-1400): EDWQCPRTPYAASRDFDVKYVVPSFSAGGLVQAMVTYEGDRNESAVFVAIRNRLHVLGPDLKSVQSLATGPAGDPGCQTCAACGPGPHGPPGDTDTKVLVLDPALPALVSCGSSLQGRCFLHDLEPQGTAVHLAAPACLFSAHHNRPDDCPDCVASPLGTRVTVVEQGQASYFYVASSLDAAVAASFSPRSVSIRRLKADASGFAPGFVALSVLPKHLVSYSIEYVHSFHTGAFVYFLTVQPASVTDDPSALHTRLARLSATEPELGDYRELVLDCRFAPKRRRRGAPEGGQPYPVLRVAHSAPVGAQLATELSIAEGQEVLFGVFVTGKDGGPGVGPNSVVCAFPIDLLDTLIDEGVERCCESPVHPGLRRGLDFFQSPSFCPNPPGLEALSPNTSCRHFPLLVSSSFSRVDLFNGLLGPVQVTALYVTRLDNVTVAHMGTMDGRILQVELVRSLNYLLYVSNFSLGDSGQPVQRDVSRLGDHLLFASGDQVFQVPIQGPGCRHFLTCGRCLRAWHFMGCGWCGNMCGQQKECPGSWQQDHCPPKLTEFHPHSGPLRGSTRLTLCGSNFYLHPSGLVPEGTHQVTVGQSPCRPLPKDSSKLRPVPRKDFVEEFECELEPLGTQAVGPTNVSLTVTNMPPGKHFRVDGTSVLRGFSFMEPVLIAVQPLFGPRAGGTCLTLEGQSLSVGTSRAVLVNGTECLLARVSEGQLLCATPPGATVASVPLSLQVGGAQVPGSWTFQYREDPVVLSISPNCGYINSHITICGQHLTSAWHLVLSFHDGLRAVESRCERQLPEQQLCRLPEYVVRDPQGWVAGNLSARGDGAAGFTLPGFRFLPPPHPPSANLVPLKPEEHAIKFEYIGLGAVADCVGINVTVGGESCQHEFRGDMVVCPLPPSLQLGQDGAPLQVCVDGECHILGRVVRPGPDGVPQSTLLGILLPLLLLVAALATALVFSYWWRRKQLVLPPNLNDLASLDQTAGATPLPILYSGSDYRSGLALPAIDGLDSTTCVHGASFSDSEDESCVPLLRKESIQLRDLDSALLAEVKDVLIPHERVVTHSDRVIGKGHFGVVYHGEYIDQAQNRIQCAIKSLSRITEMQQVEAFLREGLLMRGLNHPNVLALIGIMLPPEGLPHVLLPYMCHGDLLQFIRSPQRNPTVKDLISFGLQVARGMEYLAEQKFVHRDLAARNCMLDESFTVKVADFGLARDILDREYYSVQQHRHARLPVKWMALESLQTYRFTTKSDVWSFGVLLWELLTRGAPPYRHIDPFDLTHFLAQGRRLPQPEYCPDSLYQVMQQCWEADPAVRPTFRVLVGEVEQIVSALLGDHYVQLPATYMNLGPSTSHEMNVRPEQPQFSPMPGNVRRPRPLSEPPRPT
Procedure: as §1

[3] = biological target: T1, Porcine brain tubulin (Sus scrofa, UniProt P02550+P02554); assay: Fluorescence-based tubulin polymerisation assay; format: biochemical; details: 37° C., FIG. 10A
T1 construct: purchased Cytoskeleton, Colo., USA (Tubulin Polymerisation Assay kit); host or cells: porcine brain (tissue-purified)
T1 sequence (P02550 whole entry): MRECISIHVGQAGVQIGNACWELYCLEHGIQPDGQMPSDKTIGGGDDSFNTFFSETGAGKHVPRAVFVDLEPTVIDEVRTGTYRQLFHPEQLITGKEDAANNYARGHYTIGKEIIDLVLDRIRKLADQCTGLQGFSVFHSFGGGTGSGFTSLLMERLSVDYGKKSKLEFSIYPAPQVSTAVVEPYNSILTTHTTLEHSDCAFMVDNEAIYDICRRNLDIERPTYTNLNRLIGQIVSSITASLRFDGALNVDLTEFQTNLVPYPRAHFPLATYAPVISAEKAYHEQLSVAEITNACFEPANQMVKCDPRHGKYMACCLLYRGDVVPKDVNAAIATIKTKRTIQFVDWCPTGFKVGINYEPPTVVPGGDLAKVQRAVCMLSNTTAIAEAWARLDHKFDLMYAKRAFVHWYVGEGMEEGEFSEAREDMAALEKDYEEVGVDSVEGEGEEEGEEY
T1 sequence (P02554 whole entry): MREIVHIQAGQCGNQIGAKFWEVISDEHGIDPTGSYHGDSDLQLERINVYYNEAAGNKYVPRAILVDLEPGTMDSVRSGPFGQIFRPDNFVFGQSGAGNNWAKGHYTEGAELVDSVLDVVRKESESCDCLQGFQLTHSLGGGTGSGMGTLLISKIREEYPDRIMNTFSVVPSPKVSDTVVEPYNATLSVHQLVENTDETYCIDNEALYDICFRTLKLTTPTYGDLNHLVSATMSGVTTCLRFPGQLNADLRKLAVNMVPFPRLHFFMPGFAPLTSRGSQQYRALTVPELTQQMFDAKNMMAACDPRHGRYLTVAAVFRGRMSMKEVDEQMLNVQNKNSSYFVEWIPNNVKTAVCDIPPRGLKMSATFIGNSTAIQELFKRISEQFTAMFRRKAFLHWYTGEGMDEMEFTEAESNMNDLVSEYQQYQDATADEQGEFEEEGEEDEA
Procedure: FIGS. 10A-10D. […] (10A) Compound 1-08 inhibits tubulin polymerisation in vitro. Data are expressed as mean from at least 3 independent experiments; each data point was performed in triplicates. (10B) U87 cells treated with compound 1-08 (24 h) were stained with Alexa488-labelled anti-β-tubulin antibody (green) or DAPI (blue). Treatment profoundly disturbed the microtubule network and caused formation of multinucleated cell (white arrows). White scale bar represents 50 μm. Multinucleated cells were manually counted and at least 200 cells were counted for each sample. Data in the bar graph (10C) are expressed as mean±SEM (n=3; * P<0.05, *** P<0.001; 1-way ANOVA followed by Newman-Keuls posttest). (10D) U87 cells were treated with compound 1-08 (48 h), tubulin and DNA were stained as in (10B). Treatment with 1-08 caused defective mitotic spindle formation. Representative images from 3 independent experiments are shown. White scale bar represents 2 μm.
The effect of compound 1-08 on tubulin polymerisation and mitotic spindle formation was also investigated. The fluorescence-based tubulin polymerisation assay was conducted in the final volume of 55 μL using the Tubulin Polymerisation Assay kit (Cytoskeleton, Colo., USA) as per the manufacturer's instructions. Porcine brain tubulin was incubated with test compounds (paclitaxel, vinblastine and compound 1-08) at 37° C. and fluorescence was measured using FLUOstar Omega microplate reader (BMG Labtech, Ortenberg, Germany; excitation at 355 nm and emission at 460 nm). […] To test whether compound 1-08 alters microtubules in vivo, U87 glioblastoma cells were treated with compound 1-08 and the effect on the microtubules was determined by immunofluorescence staining of β-tubulin. […] The consequence of microtubule depolymerisation induced by compound 13 was disrupted spindle assembly (FIG. 10D). In untreated U87 cells undergoing mitosis, microtubules are assembled into bipolar spindles (control images).

[4] = system: U87vIII; assay: Annexin-FITC/7-AAD apoptosis assay, U87vIII cells; format: cell-based; details: 48 hours treatment
Procedure: FIGS. 4A-4D. […] U87 (4A-4B) and U87vIII (4C-4D) cells were treated with SC-38 for 48 hours and stained with Annexin-FITC/7-AAD. Apoptotic cells were visualized using the MUSE cell analyzer (Millipore).
FIGS. 6A-6D. […] U87 (A B) (6A-6B) and U87vIII (6C-6D) cells were treated with compound 1-08 for 48 hours and stained with Annexin-FITC/7-AAD. Apoptotic cells were visualized using the MUSE cell analyzer (Millipore). Results are means±SEM from 3 independent experiments. One-way ANOVA followed by Dunnet post-test was used to calculate statistical significance (***P<0.001).
(§2) U87 (FIGS. 4, A-B) and U87vIII (FIG. 4, C-D) cells were treated with SC-38 for 48 hours and stained with Annexin-FITC/7-AAD. Apoptotic cells were visualized using the MUSE cell analyzer (Millipore). Results are means±SEM from 3 independent experiments. One-way ANOVA followed by Dunnet post-test was used to calculate statistical significance (**P<0.01, ***P<0.001)
as §2, with “6,” for “4,”, “compound 1-08” for “SC-38”, “three” for “3”, “(***P<0.001).” for “(**P<0.01, ***P<0.001)”

LYN, sequence (P07948 whole entry): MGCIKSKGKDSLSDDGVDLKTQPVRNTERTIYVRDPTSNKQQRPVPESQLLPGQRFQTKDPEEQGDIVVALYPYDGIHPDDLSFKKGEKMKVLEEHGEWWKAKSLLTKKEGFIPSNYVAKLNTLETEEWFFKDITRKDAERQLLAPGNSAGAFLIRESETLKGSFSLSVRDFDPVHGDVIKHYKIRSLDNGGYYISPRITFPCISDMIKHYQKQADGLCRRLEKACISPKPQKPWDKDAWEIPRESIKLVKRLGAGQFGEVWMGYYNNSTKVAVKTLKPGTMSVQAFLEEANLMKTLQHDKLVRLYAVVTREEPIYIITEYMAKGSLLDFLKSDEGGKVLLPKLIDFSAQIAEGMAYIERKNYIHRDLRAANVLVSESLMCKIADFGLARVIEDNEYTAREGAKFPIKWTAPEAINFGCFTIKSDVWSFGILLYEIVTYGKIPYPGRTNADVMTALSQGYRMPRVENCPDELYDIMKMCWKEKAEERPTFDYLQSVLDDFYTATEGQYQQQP

O=C(CCCc1ccc(-c2cnc3ccccc3c2)cc1)Nc1ccc(O)cc1 [Compound 1-08, N-(4-hydroxyphenyl)-4-(4-(quinolin-3-yl)phenyl)butanamide]
remaining activity at 10 µM ([1]; 10 μM compound): 87%
remaining activity at 50 µM ([1]; 50 μM compound): 21%
remaining activity at 10 µM ([2]; 10 μM compound): 84%
remaining activity at 50 µM ([2]; 50 μM compound): 18%
effect on tubulin polymerisation compared to control [3]: inhibited tubulin polymerisation in a dose-dependent manner
apoptosis, U87vIII [4]: induced apoptosis
